Assays:
Assay type in all cases: in vivo
[1] = tested on: Myzus persicae; assay: Myzus persicae leaf dip test (capsicum leaves, third instar nymphs); settings: foliar, 72 h after release, dead and moribund combined, compared to untreated control, read-out: percent mortality
[2] = tested on: Bemisia tabaci; assay: Bemisia tabaci leaf dip test (brinjal leaves, whitefly adults); settings: foliar, 72 h after release, dead and moribund combined, compared to untreated control, read-out: percent mortality
Procedure: The leaf dip method was used for testing, wherein the required quantity of the compound was weighed and dissolved in a tube containing a solvent solution. The tube was put on a vortex at 2000 rpm for 90 min for proper mixing and then the mixture was diluted with a 0.01% Triton-X solution to the desired test concentration. Brinjal leaves were dipped in the compound solution for 10 seconds, shade dried for 20 min and then placed, with the abaxial side of the leaf up, on 4 ml of a 1% agar-agar solution in respective container caps. Known numbers of freshly emerged whitefly adults were collected, using a modified aspirator, and released into a perforated container in which the cap containing the treated leaf was placed. The containers were kept in a plant growth chamber at a temperature of 25° C. and a relative humidity of 70%. Observations on dead, moribund and alive adults were recorded 72 h after the release. Percent mortality was calculated by combining dead and moribund adults and comparing the result to the one of the untreated control. The compounds 32 53 58 79 80 81 82 84 87 88 89 94 95 96 101 102 103 104 105 106 107 108 109 112 113 114 115 116 117 118 119 120 123 124 125 126 127 130 135 138 139 140 144 145 147 150 154 156 158 159 164 167 168 169 170 171 188 189 191 198 199 200 201 202 206 207 208 209 210 213 216 223 224 225 227 228 231 232 233 234 235 236 238 242 243 244 246 and 247 recorded≥70 percent mortality @ 300 PPM.

[3] = tested on: Nilaparvata lugens; assay: Nilaparvata lugens seedling dip test (paddy seedlings, third instar nymphs); settings: 72 h after release, dead and moribund combined, compared to untreated control, read-out: percent mortality

Measured: mortality at 300 ppm

O=c1nc2n(Cc3cnc(Cl)s3)cccc-2c(=O)n1-c1ccc2c(c1)OC(F)(F)O2 [Compound 247, 8-((2-chlorothiazol-5-yl)methyl)-3-(2,2-difluorobenzo[d][1,3]dioxol-5-yl)pyrido[2,3-d]pyrimidine-2,4(3H,8H)-dione]
≥ 70%: all assays above

O=c1nc2n(Cc3cnc(Cl)s3)cccc-2c(=O)n1-c1ccc(F)c(C(F)(F)F)c1 [Compound 242, 8-((2-chlorothiazol-5-yl)methyl)-3-(4-fluoro-3-(trifluoromethyl)phenyl)pyrido[2,3-d]pyrimidine-2,4(3H,8H)-dione]
≥ 70%: all assays above

O=c1nc2n(Cc3cnc(Cl)nc3)cccc-2c(=O)n1-c1ccc(F)cc1Cl [Compound 225, 3-(2-chloro-4-fluorophenyl)-8-((2-chloropyrimidin-5-yl)methyl)pyrido[2,3-d]pyrimidine-2,4(3H,8H)-dione]
≥ 70%: all assays above

O=c1nc2n(Cc3ccc(Cl)nc3)cccc-2c(=O)n1-c1cccc(OC(F)(F)F)c1 [Compound 123, 8-((6-chloropyridin-3-yl)methyl)-3-(3-(trifluoromethoxy)phenyl)pyrido[2,3-d]pyrimidine-2,4(3H,8H)-dione]
≥ 70%: all assays above

O=c1nc2n(Cc3cnc(Cl)nc3)cccc-2c(=O)n1-c1cccc(F)c1 [Compound 118, 8-((2-chloropyrimidin-5-yl)methyl)-3-(3-fluorophenyl)pyrido[2,3-d]pyrimidine-2,4(3H,8H)-dione]
≥ 70%: all assays above

O=c1nc2n(Cc3cnc(Cl)s3)cccc-2c(=O)n1-c1cccc(OC(F)(F)F)c1 [Compound 150, 8-((2-chlorothiazol-5-yl)methyl)-3-(3-(trifluoromethoxy)phenyl)pyrido[2,3-d]pyrimidine-2,4(3H,8H)-dione]
≥ 70%: all assays above

O=c1nc2n(Cc3ccc(Cl)nc3)cccc-2c(=O)n1-c1cccc(SC(F)(F)F)c1 [Compound 246, 8-((6-chloropyridin-3-yl)methyl)-3-(3-((trifluoromethyl)thio)phenyl)pyrido[2,3-d]pyrimidine-2,4(3H,8H)-dione]
≥ 70%: all assays above

O=c1nc2n(Cc3cnc(Cl)nc3)cccc-2c(=O)n1-c1cccc(Br)c1 [Compound 231, 3-(3-bromophenyl)-8-((2-chloropyrimidin-5-yl)methyl)pyrido[2,3-d]pyrimidine-2,4(3H,8H)-dione]
≥ 70%: all assays above

O=c1nc2n(Cc3cnc(Cl)nc3)cccc-2c(=O)n1-c1cccc(Cl)c1 [Compound 96, 3-(3-chlorophenyl)-8-((2-chloropyrimidin-5-yl)methyl)pyrido[2,3-d]pyrimidine-2,4(3H,8H)-dione]
≥ 70%: all assays above

O=c1nc2n(Cc3cnc(Cl)nc3)cccc-2c(=O)n1-c1ccc(F)c(Cl)c1 [Compound 154, 3-(3-chloro-4-fluorophenyl)-8-((2-chloropyrimidin-5-yl)methyl)pyrido[2,3-d]pyrimidine-2,4(3H,8H)-dione]
≥ 70%: all assays above

O=c1nc2n(Cc3cnc(Cl)nc3)cccc-2c(=O)n1-c1ccc(OCC(F)(F)F)cc1 [Compound 216, 8-((2-chloropyrimidin-5-yl)methyl)-3-(4-(2,2,2-trifluoroethoxy)phenyl)pyrido[2,3-d]pyrimidine-2,4(3H,8H)-dione]
≥ 70%: all assays above

O=c1nc2n(Cc3cnc(Cl)nc3)cccc-2c(=O)n1-c1ccc(Br)cc1 [Compound 159, 3-(4-bromophenyl)-8-((2-chloropyrimidin-5-yl)methyl)pyrido[2,3-d]pyrimidine-2,4(3H,8H)-dione]
≥ 70%: all assays above

O=c1nc2n(Cc3cnc(Cl)nc3)cccc-2c(=O)n1-c1ccc(Br)c(F)c1 [Compound 235, 3-(4-bromo-3-fluorophenyl)-8-((2-chloropyrimidin-5-yl)methyl)pyrido[2,3-d]pyrimidine-2,4(3H,8H)-dione]
≥ 70%: all assays above

O=c1nc2n(Cc3cnc(Cl)nc3)cccc-2c(=O)n1-c1ccc(F)c(Br)c1 [Compound 234, 3-(3-bromo-4-fluorophenyl)-8-((2-chloropyrimidin-5-yl)methyl)pyrido[2,3-d]pyrimidine-2,4(3H,8H)-dione]
≥ 70%: all assays above

O=c1nc2n(Cc3cnc(Cl)s3)cccc-2c(=O)n1-c1ccc(OCC(F)(F)F)cc1 [Compound 243, 8-((2-chlorothiazol-5-yl)methyl)-3-(4-(2,2,2-trifluoroethoxy)phenyl)pyrido[2,3-d]pyrimidine-2,4(3H,8H)-dione]
≥ 70%: all assays above

O=c1nc2n(Cc3cnc(Cl)nc3)cccc-2c(=O)n1-c1cc(Cl)cc(Cl)c1 [Compound 201, 8-((2-chloropyrimidin-5-yl)methyl)-3-(3,5-dichlorophenyl)pyrido[2,3-d]pyrimidine-2,4(3H,8H)-dione]
≥ 70%: all assays above

O=c1nc2n(Cc3cnc(Cl)nc3)cccc-2c(=O)n1-c1ccc(F)c(F)c1 [Compound 120, 8-((2-chloropyrimidin-5-yl)methyl)-3-(3,4-difluorophenyl)pyrido[2,3-d]pyrimidine-2,4(3H,8H)-dione]
≥ 70%: all assays above

O=c1nc2n(Cc3cnc(Cl)nc3)cccc-2c(=O)n1-c1ccc(F)cc1F [Compound 207, 8-((2-chloropyrimidin-5-yl)methyl)-3-(2,4-difluorophenyl)pyrido[2,3-d]pyrimidine-2,4(3H,8H)-dione]
≥ 70%: all assays above

O=c1nc2n(Cc3cnc(Cl)nc3)cccc-2c(=O)n1-c1cc(F)cc(F)c1 [Compound 140, 8-((2-chloropyrimidin-5-yl)methyl)-3-(3,5-difluorophenyl)pyrido[2,3-d]pyrimidine-2,4(3H,8H)-dione]
≥ 70%: all assays above

O=c1nc2n(Cc3cnc(Cl)nc3)cccc-2c(=O)n1-c1ccc(Cl)cc1 [Compound 82, 3-(4-chlorophenyl)-8-((2-chloropyrimidin-5-yl)methyl)pyrido[2,3-d]pyrimidine-2,4(3H,8H)-dione]
≥ 70%: all assays above

O=c1nc2n(Cc3ccc(Cl)nc3)cccc-2c(=O)n1-c1cc(Cl)cc(C(F)(F)F)c1 [Compound 109, 3-(3-chloro-5-(trifluoromethyl)phenyl)-8-((6-chloropyridin-3-yl)methyl)pyrido[2,3-d]pyrimidine-2,4(3H,8H)-dione]
≥ 70%: all assays above

O=c1nc2n(Cc3ccc(Cl)nc3)cccc-2c(=O)n1-c1ccc2c(c1)OC(F)(F)O2 [Compound 199, 8-((6-chloropyridin-3-yl)methyl)-3-(2,2-difluorobenzo[d][1,3]dioxol-5-yl)pyrido[2,3-d]pyrimidine-2,4(3H,8H)-dione]
≥ 70%: all assays above
